The values below come from patent publication US20060135773A1, “Trisubstituted nitrogen modulators of tyrosine phosphatases” (priority 2004, published 2006).

In general, IC50 refers to the concentration needed to halve the response being measured.

The assay concerns the target T1, PTP-1B (Homo sapiens, UniProt P18031).
T1 construct: PTP-1B (purified, 1 mg/mL) as a 1:250 dilution
T1 sequence (P18031 1-321 limits assumed): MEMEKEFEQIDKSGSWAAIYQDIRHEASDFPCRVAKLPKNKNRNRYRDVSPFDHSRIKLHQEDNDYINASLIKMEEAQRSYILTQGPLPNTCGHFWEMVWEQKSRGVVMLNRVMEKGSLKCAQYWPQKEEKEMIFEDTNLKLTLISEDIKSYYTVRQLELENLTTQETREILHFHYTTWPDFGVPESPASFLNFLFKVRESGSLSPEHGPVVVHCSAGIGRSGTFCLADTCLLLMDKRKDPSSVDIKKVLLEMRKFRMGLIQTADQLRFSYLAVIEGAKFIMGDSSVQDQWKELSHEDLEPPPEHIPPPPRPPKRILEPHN
Put plainly: pNPP tyrosine phosphatase inhibition assay, PTP-1B. Type of assay: biochemical. The note with it: pNPP assay, PTP-1B; read-out: Activity Class (IC50 ranges). On the procedure:
The compounds provided herein are evaluated for biological activity as inhibitors of PTP-1B using, for example, a pNPP assay can be used to screen compounds for tyrosine phosphatase inhibitory activity as described in the Examples.
A 5× stock of pNPP (p-nitrophenol phosphate) substrate is prepared as 50 mM pNPP in assay buffer. Various tyrosine phosphatase solutions can be prepared as follows: • PTP-1B (purified, 1 mg/mL) as a 1:250 dilution (to a final concentration of 4:g/mL); • TC-PTP (NEB, 1000 units in 100:L) as a 1:50 dilution (to a final concentration of 2U/10:L (4:g/mL)); • CD45 (Calbiochem, 20:g, 400 units in 100:L) as a 1:50 dilution (to a final concentration of 0.8U/10:L (4:g/mL)); • LAR (NEB, 1000 units in 200:L) as a 1:75 dilution (to a final concentration of 0.7U/10:L (4:g/mL)); and • PTP-β (UBI, #14-350, 10,000 units, 40:g/571:L) as a 1:17.5 dilution (to a final concentration of 10U/10:L (4:g/mL));
The compound to be tested is prepared as 1:16.7 and 1:50 dilutions from stock in a total volume of […] DMSO to give final concentrations of 626 and 200:M. The reaction mixtures are prepared in a 96-well microtiter plate (on ice) as 55:L assay buffer, 5:L of the diluted compound (to a final concentration of 31.3 and 10:M), 20:L of the pNPP substrate solution (to a final concentration of 10 mM) and 20:L PTPase in assay buffer. The reactants are mixed well, the plate placed in a water bath at 30° C. and incubated for 10 minutes. The reaction is then terminated by adding 100:L of 2M K2CO3 per well, and the absorbance is measured at 405 nm by conventional means.
Unless otherwise indicated, this assay was used to determine activity for the selected compounds whose activity is provided in Table 1.

A value given as a limit tells only on which side of the number the result lay.

Regarding `O=P(O)(O)C(F)(F)c1ccc(CN(Cc2ccc(C(F)(F)P(=O)(O)O)cc2)S(=O)(=O)c2cccc3ccccc23)cc1` [Compound 67, [(4-{[[4-(Difluoro-phosphono-methyl)-benzyl]-(naphthalene-1-sulfonyl)-amino]-methyl}-phenyl)-difluoro-methyl]-phosphonic acid], the IC50 fell in the range of 2500 to 25000 nM.
The same measure for `O=P(O)(O)C(F)(F)c1ccc(CN(Cc2ccc(Cl)c(Cl)c2)S(=O)(=O)c2ccccc2)cc1Br` [Compound 68, [(4-{[Benzenesulfonyl-(3,4-dichloro-benzyl)-amino]-methyl}-2-bromo-phenyl)-difluoro-methyl]-phosphonic acid]: 250 to 499 nM.
The value for `O=P(O)(O)C(F)(F)c1ccc(CN(Cc2ccc(C(F)(F)P(=O)(O)O)cc2)S(=O)(=O)Cc2ccccc2)cc1` [Compound 69, {[4-({[4-(Difluoro-phosphono-methyl)-benzyl]-phenylmethanesulfonyl-amino}-methyl)-phenyl]-difluoro-methy}-phosphonic acid] was 2500 to 25000 nM; that for `O=P(O)(O)C(F)(F)c1ccc(CN(Cc2ccc(C(F)(F)P(=O)(O)O)cc2)S(=O)(=O)c2ccc(Oc3ccccc3)cc2)cc1` [Compound 70, [(4-{[[4-(Difluoro-phosphono-methyl)-benzyl]-(4-phenoxy-benzenesulfonyl)-amino]-methyl}-phenyl)-difluoro-methyl]-phosphonic acid] was 250 to 499 nM.
Turning to `O=P(O)(O)C(F)(F)c1ccc(CN(Cc2ccc(C(F)(F)P(=O)(O)O)cc2)S(=O)(=O)c2ccc3ccccc3c2)cc1` [Compound 71, [(4-{[[4-(Difluoro-phosphono-methyl)-benzyl]-(naphthalene-2-sulfonyl)-amino]-methyl}-phenyl)-difluoro-methyl]-phosphonic acid], the IC50 was in the range of 250 to 499 nM.
As for `O=P(O)(O)C(F)(F)c1ccc(CN(Cc2ccc(C(F)(F)P(=O)(O)O)cc2)S(=O)(=O)c2cccc(Oc3ccccc3)c2)cc1` [Compound 72, [(4-{[[4-(Difluoro-phosphono-methyl)-benzyl]-(3-phenoxy-benzenesulfonyl)-amino]-methyl}-phenyl)-difluoro-methyl]-phosphonic acid], the IC50 is 250 to 499 nM.
Take `O=P(O)(O)C(F)(F)c1ccc(CN(Cc2ccc(C(F)(F)P(=O)(O)O)cc2)S(=O)(=O)c2ccc(Cl)cc2)cc1` [Compound 73, {[4-({(4-Chloro-benzenesulfonyl)-[4-(difluoro-phosphono-methyl)-benzyl]-amino}-methyl)-phenyl]-difluoro-methyl}-phosphonic acid]: the IC50 fell in the range of 250 to 499 nM.
The same measure for `O=P(O)(O)C(F)(F)c1ccc(CN(Cc2ccc(C(F)(F)P(=O)(O)O)cc2)S(=O)(=O)c2cccc(-c3ccccc3)c2)cc1` [Compound 74, {[4-({(Biphenyl-3-sulfonyl)-[4-(difluoro-phosphono-methyl)-benzyl]-amino}-methyl)-phenyl]-difluoro-methyl}-phosphonic acid]: 250 to 499 nM; for `O=P(O)(O)C(F)(F)c1ccc(CN(Cc2ccc(C(F)(F)P(=O)(O)O)cc2)S(=O)(=O)C=Cc2ccccc2)cc1` [Compound 75, [(4-{[[4-(Difluoro-phosphono-methyl)-benzyl]-(2-phenyl-ethenesulfonyl)-amino]-methyl}-phenyl)-difluoro-methyl]-phosphonic acid]: 250 to 499 nM.
The value for `O=P(O)(O)C(F)(F)c1ccc(CN(Cc2ccc(C(F)(F)P(=O)(O)O)cc2)S(=O)(=O)c2cccc(Cl)c2)cc1` [Compound 76, {[4-({(3-Chloro-benzenesulfonyl)-[4-(difluoro-phosphono-methyl)-benzyl]-amino}-methyl)-phenyl]-difluoro-methyl}-phosphonic acid] was 250 to 499 nM; that for `O=P(O)(O)C(F)(F)c1ccc(CN(Cc2ccc(C(F)(F)P(=O)(O)O)cc2)S(=O)(=O)c2ccc(Cl)c(Cl)c2)cc1` [Compound 77, {[4-({(3,4-Dichloro-benzenesulfonyl)-[4-(difluoro-phosphono-methyl)-benzyl]-amino}-methyl)-phenyl]-difluoro-methyl}-phosphonic acid] was 250 to 499 nM; that for `O=C(O)c1ccc(CN(Cc2ccc(C(=O)O)cc2)S(=O)(=O)c2ccccc2)cc1` [Compound 78, 4-([Benzenesulfonyl-(4-carboxybenzyl)-amino]-methyl)-benzoic acid] was over 25000 nM.
The value for `O=C(O)c1ccc(CN(Cc2ccc(C(=O)O)c(Br)c2)S(=O)(=O)c2ccccc2)cc1` [Compound 79, 2-bromo-4-([Benzenesulfonyl-(4-carboxybenzyl)-amino]-methyl)-benzoic acid] was over 25000 nM; that for `O=C(O)c1ccc(CN(Cc2ccc(C(=O)O)cc2Br)S(=O)(=O)c2ccccc2)cc1` [Compound 80, 4-([Benzenesulfonyl-(2-bromo-4-carboxybenzyl)-amino]-methyl)-benzoic acid] was over 25000 nM.
For the compound `O=[N+]([O-])c1ccc(CN(Cc2ccc(Cl)c(Cl)c2)S(=O)(=O)c2ccccc2Cl)cc1` [Compound 81, 2-Chloro-N-(3,4-dichloro-benzyl)-N-(4-nitro-benzyl)-benzenesulfonamide], the 50% inhibitory concentration (IC50) was over 25000 nM.
Consider `O=P(O)(O)C(F)(F)c1ccc(CN(Cc2ccc(Cl)c(Cl)c2)S(=O)(=O)c2ccccc2Cl)cc1Br` [Compound 82], for which the IC50 lay within 100 to 249 nM.
The same measure for `O=P(O)(O)C(F)(F)c1ccc(CN(Cc2ccc(C(F)(F)P(=O)(O)O)cc2)S(=O)(=O)c2ccccc2F)cc1` [Compound 83, [(4-{[[4-(Difluoro-phosphono-methyl)-benzyl]-(2-fluoro-benzenesulfonyl)-amino]-methyl}-phenyl)-difluoro-methyl]-phosphonic acid]: 250 to 499 nM.
The same measure for `O=P(O)(O)C(F)(F)c1ccc(CN(Cc2ccc(C(F)(F)P(=O)(O)O)cc2)S(=O)(=O)c2ccccc2Br)cc1` [Compound 84, {[4-({(2-Bromo-benzenesulfonyl)-[4-(difluoro-phosphono-methyl)-benzyl]-amino}-methyl)-phenyl]-difluoro-methyl}-phosphonic acid]: 250 to 499 nM; for `COc1ccccc1S(=O)(=O)N(Cc1ccc(C(F)(F)P(=O)(O)O)cc1)Cc1ccc(C(F)(F)P(=O)(O)O)cc1` [Compound 85, [(4-{[[4-(Difluoro-phosphono-methyl)-benzyl]-(2-methoxy-benzenesulfonyl)-amino]-methyl}-phenyl)-difluoro-methyl]-phosphonic acid]: 250 to 499 nM.
The same measure for `COc1cccc(S(=O)(=O)N(Cc2ccc(C(F)(F)P(=O)(O)O)cc2)Cc2ccc(C(F)(F)P(=O)(O)O)cc2)c1` [Compound 86, [(4-{[[4-(Difluoro-phosphono-methyl)-benzyl]-(3-methoxy-benzenesulfonyl)-amino]-methyl}-phenyl)-difluoro-methyl]-phosphonic acid]: 250 to 499 nM.
On to `O=S(=O)(c1ccccc1Cl)N(Cc1ccc(NS(=O)(=O)C(F)(F)F)cc1)Cc1ccc(Cl)c(Cl)c1` [Compound 87, 2-Chloro-N-(3,4-dichloro-benzyl)-N-(4-trifluoromethanesulfonylamino-benzyl)-benzenesulfonamide], for which the IC50 is over 25000 nM.
The value for `CCNc1ccc(S(=O)(=O)C(F)(F)F)cc1NC(=O)C1CCN(S(=O)(=O)c2cccs2)CC1` [Compound 88, 1-(Thiophene-2-sulfonyl)-piperidine-4-carboxylic acid (2-ethylamino-5-trifluoromethanesulfonyl-phenyl)-amide] was over 25000 nM; that for `COc1ccc(S(=O)(=O)N(Cc2ccc(C(F)(F)P(=O)(O)O)cc2)Cc2ccc(C(F)(F)P(=O)(O)O)cc2)cc1` [Compound 89, [(4-{[[4-(Difluoro-phosphono-methyl)-benzyl]-(4-methoxy-benzenesulfonyl)-amino]-methyl}-phenyl)-difluoro-methyl]-phosphonic acid] was 250 to 499 nM; that for `O=P(O)(O)C(F)(F)c1ccc(CN(Cc2ccc(C(F)(F)P(=O)(O)O)cc2)S(=O)(=O)c2ccccc2C(F)(F)F)cc1` [Compound 90, [(4-{[[4-(Difluoro-phosphono-methyl)-benzyl]-(2-trifluoromethyl-benzenesulfonyl)-amino]-methyl}-phenyl)-difluoro-methyl]-phosphonic acid] was 250 to 499 nM.
